From PubChem BioAssay (NCI)
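1) Cells in 96-well plates. 2) Compound, 48 h, 5 concentrations. 3) Linear interpolation between surrounding doses. 4) Unreached endpoint = highest concentration. At the TGI there is no net growth.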

Experiments:
Test in all cases: NCI tumour cell line growth inhibition, 48 h
MDA-N = test system: MDA-N
NCI-H460 lung = test system: NCI-H460 lung
T-47D breast = test system: T-47D breast
TK-10 renal = test system: TK-10 renal
OVCAR-4 ovarian = test system: OVCAR-4 ovarian
CAKI-1 renal = test system: CAKI-1 renal
SK-MEL-2 melanoma = test system: SK-MEL-2 melanoma
RXF 393 renal = test system: RXF 393 renal
HS 578T breast = test system: HS 578T breast
IGROV1 ovarian = test system: IGROV1 ovarian
SNB-75 CNS = test system: SNB-75 CNS

## O=S(=O)(O)C(CO)c1ccccc1 (stereo not drawn) (tested in a mixture with another compound)
MDA-N
  TGI: > 100 µM
NCI-H460 lung
  TGI: > 100 µM
T-47D breast
  TGI: > 100 µM
TK-10 renal
  TGI: > 100 µM
OVCAR-4 ovarian
  TGI: > 100 µM
CAKI-1 renal
  TGI: > 100 µM
SK-MEL-2 melanoma
  TGI: > 100 µM
RXF 393 renal
  TGI: > 100 µM
HS 578T breast
  TGI: > 100 µM
IGROV1 ovarian
  TGI: > 100 µM
SNB-75 CNS
  TGI: > 100 µM

## O=C1OC(C2Cc3ccc4ccccc4c3C2=O)c2ccccc21 (stereo not drawn)
MDA-N
  TGI: > 100 µM
NCI-H460 lung
  TGI: > 100 µM
T-47D breast
  TGI: > 100 µM
TK-10 renal
  TGI: > 100 µM
OVCAR-4 ovarian
  TGI: 65.3 µM
CAKI-1 renal
  TGI: > 100 µM
SK-MEL-2 melanoma
  TGI: > 100 µM
RXF 393 renal
  TGI: 49.5 µM
HS 578T breast
  TGI: 88.9 µM
IGROV1 ovarian
  TGI: > 100 µM
SNB-75 CNS
  TGI: > 100 µM

## Oc1cc(Cl)cc2cccnc12
MDA-N
  TGI: > 100 µM
NCI-H460 lung
  TGI: 18.6 µM
T-47D breast
  TGI: 26.2 µM
TK-10 renal
  TGI: > 100 µM
OVCAR-4 ovarian
  TGI: > 100 µM
CAKI-1 renal
  TGI: > 100 µM
SK-MEL-2 melanoma
  TGI: > 100 µM
RXF 393 renal
  TGI: 42.9 µM
HS 578T breast
  TGI: > 48.5 µM
IGROV1 ovarian
  TGI: 5.12 µM
SNB-75 CNS
  TGI: > 100 µM
